# Experimental data published in paper PMC11984392, “EphA2-targeted alpha-particle theranostics for enhancing PDAC treatment” (Theranostics, 2025).
# Read-outs that look alike come from different tables or passages of the source. *1 amine or outer side, *2 acyl side, *3 side chain or, on linkers, in order; H or OH if unused. Where a SMILES comes first, the peptide text is derived from it. Bridges are numbered along the chain shown (N, C = ends). [ ]: non-standard residue; d: D form. The star is where a group is joined. TATA = O=C(CC[*:1])N1CN(C(=O)CC[*:2])CN(C(=O)CC[*:3])C1; NOTA = O=C(O)CN1CCN(CC(=O)O)CCN(CC(=O)*)CC1; Hyp = O=C(O)[C@@H]1C[C@@H](O)CN1; hArg = N=C(N)NCCCC[C@H](N)C(=O)O; PEG2 = NCCOCCOCCC(=O)O; Sar = CNCC(=O)O
# Assays:
# Ex vivo biodistribution = assay type: in vivo, NSG mice; settings: both sexes, NSG, mouse, total radioactivity, 60 min p.i., mean ± SEM (n = 4 or 5)
# Experimental: (§1) Animal studies were performed under Johns Hopkins University Animal Care and Use Committee (ACUC)-approved protocol (Principal investigator: Sridhar Nimmagadda, Ph.D. and Protocol number M021M175). Male and Female NSG mice (5-6 weeks old) were purchased from JHU immunocompromised core and used to establish xenografts by administering cells subcutaneously (top right flank, unless otherwise noted) to form various tumor models within 3-4 weeks. Following cell numbers were used: Panc1, AsPC1, BxPC3 (1 M), Hs766T and SU8686 (2 M), CFPAC and Panc1005 (5 M). Imaging or biodistribution studies (n = 3-5) were conducted on mice with tumor volumes of 100-200 mm^3. The Panc1 orthotopic tumor model was established by surgically implanting a 3-5 mm^3 section of Panc1 tumor xenograft directly onto the pancreas. The implanted tumors were allowed to grow and were ready for imaging after 10 days of implantation.
# (§2) Mice with 100-200 mm^3 tumor volume were used for ex vivo biodistribution studies. For radiotracer pharmacokinetics and dosimetry studies, mice with Panc1 tumor xenograft received ~80 µCi (2.96 MBq) [^68Ga]AJ201 and were sacrificed at pre-determined time points (5, 30, 60, 90 and 120 min). All other mice were injected with ~50 µCi (1.85 MBq; 0.2 to 0.5 nmol) Ga-68 labeled radiotracer and were sacrificed at 60 min. The selected tissues were collected, weighed, counted, and their %ID/g values calculated for biodistribution analysis. For pharmacokinetics and dosimetry studies, selected tissues included blood, muscle, tumor, thymus, heart, lung, liver, pancreas, stomach, small intestine, large intestine, spleen, adrenals, kidney, bladder, femur, brain and tumor xenografts. For other studies, selected tissues were blood, muscle, tumor, heart, lung, liver, pancreas, small intestine, spleen, kidney.
# CFPAC tumor xenografts = test: Ex vivo biodistribution; assay type: in vivo, NSG mice; settings: CFPAC xenograft; 60 min p.i.; mean ± SEM (n = 4 or 5)
# Experimental: as §1, §2
# BxPC3 tumor xenografts = test: Ex vivo biodistribution; assay type: in vivo, NSG mice; settings: BxPC3 xenograft; 60 min p.i.; mean ± SEM (n = 4 or 5)
# Experimental: as §1, §2
# [1] = PET-MR imaging of Panc1 orthotopic tumor model; assay type: in vivo, mice; settings: both sexes, NSG, mouse, iv, total radioactivity, PET/MR 60 min p.i., ROI (n = 4)
# Experimental: as §1
# Mice having orthotopic panc1 tumors were injected intravenously with [^68Ga]AJ201 and PET images were acquired at 60 min after radiotracer injection for 10 min in 1 bed positions (full body) and whole-body MRI using a Simultaneous 7T Bruker PET-MR. The PET data were acquired, reconstructed, and corrected for radioactive decay using ParaVision 360 V2 by Bruker. The %ID per cc values were obtained after drawing ROI (regain of interest) in tumor and muscle using PMOD software. […]
structure (smiles),measurement,setting,value
"CC(C)C[C@@H]1NC(=O)[C@@H]2CSCCC(=O)N3CN(CN(C3)C(=O)CCSC[C@H](NC(=O)[C@H](CC(=O)O)NC(=O)[C@H](CCCCNC(=N)N)NC(=O)[C@H](C)NC(=O)CNC(=O)CN(C)C(=O)CN(C)C(=O)CN(C)C(=O)[C@H](CCCNC(=N)N)NC(=O)CNC(=O)CCOCCOCCNC(=O)CN3CCN(CC(=O)O)CCN(CC(=O)O)CC3)C(=O)N3C[C@H](O)C[C@H]3C(=O)N[C@@H](CC(C)C)C(=O)N[C@@H](C(C)C)C(=O)N[C@@H](CC(N)=O)C(=O)N3CCC[C@H]3C(=O)N[C@@H](CC(C)C)C(=O)N2)C(=O)CCSC[C@@H](C(N)=O)NC(=O)[C@H](CCCCNC(=N)N)NC(=O)[C@H](Cc2c[nH]c3ccccc23)NC(=O)[C@@H](CC(=O)O)NC(=O)[C@@H]2CCCN2C(=O)[C@H](Cc2c[nH]cn2)NC1=O [[^68Ga]AJ201, metal not drawn] ({NOTA-PEG2}-GR[Sar][Sar][Sar]GA[hArg]DC[Hyp]LVNPLCLHP[dD]W[hArg]C-NH2; linker 10-17-24 via TATA)",tissue uptake at 1 h,"Ex vivo biodistribution; pancreas, Su8686 xenograft, read-out: Pancreas uptake",0.22 ± 0.05 %ID/g
same,tissue uptake at 1 h,"Ex vivo biodistribution; small intestine, AsPC1 xenograft, read-out: Small intestine uptake",1.12 ± 0.08 %ID/g
same,tissue uptake at 1 h,"Ex vivo biodistribution; small intestine, BxPC3 xenograft, read-out: Small intestine uptake",0.32 ± 0.02 %ID/g
same,tissue uptake at 1 h,"Ex vivo biodistribution; small intestine, Hs766T xenograft, read-out: Small intestine uptake",0.62 ± 0.02 %ID/g
same,tissue uptake at 1 h,"Ex vivo biodistribution; small intestine, Panc1005 xenograft, read-out: Small intestine uptake",0.25 ± 0.03 %ID/g
same,tissue uptake at 1 h,"Ex vivo biodistribution; small intestine, Su8686 xenograft, read-out: Small intestine uptake",0.29 ± 0.05 %ID/g
same,tissue uptake at 1 h,"Ex vivo biodistribution; spleen, AsPC1 xenograft, read-out: Spleen uptake",1.61 ± 0.11 %ID/g
same,tissue uptake at 1 h,"Ex vivo biodistribution; spleen, BxPC3 xenograft, read-out: Spleen uptake",0.64 ± 0.05 %ID/g
same,tissue uptake at 1 h,"Ex vivo biodistribution; spleen, CFPAC xenograft, read-out: Spleen uptake",0.87 ± 0.15 %ID/g
same,tissue uptake at 1 h,"Ex vivo biodistribution; spleen, Hs766T xenograft, read-out: Spleen uptake",2.75 ± 0.65 %ID/g
same,tissue uptake at 1 h,"Ex vivo biodistribution; spleen, Panc1005 xenograft, read-out: Spleen uptake",0.52 ± 0.05 %ID/g
same,tissue uptake at 1 h,"Ex vivo biodistribution; spleen, Su8686 xenograft, read-out: Spleen uptake",0.6 ± 0.16 %ID/g
same,tissue uptake at 1 h,"Ex vivo biodistribution; tumor, 50 uCi, CFPAC xenograft, read-out: Tumor uptake",2.4 ± 0.2 %ID/g
same,tissue uptake at 1 h,"Ex vivo biodistribution; tumor, AsPC1 xenograft, read-out: Tumor uptake",4.01 ± 0.46 %ID/g
same,tissue uptake at 1 h,"Ex vivo biodistribution; tumor, BxPC3 xenograft, read-out: Tumor uptake",2.72 ± 0.37 %ID/g
same,tissue uptake at 1 h,"Ex vivo biodistribution; tumor, Hs766T xenograft, read-out: Tumor uptake",7.97 ± 2.83 %ID/g
same,tissue uptake at 1 h,"Ex vivo biodistribution; tumor, Panc1005 xenograft, read-out: Tumor uptake",5.31 ± 0.9 %ID/g
same,tissue uptake at 1 h,"Ex vivo biodistribution; tumor, Su8686 xenograft, read-out: Tumor uptake",7.66 ± 1 %ID/g
same,tissue to tissue ratio at 1 h,"Ex vivo biodistribution; tumor/blood, AsPC1 xenograft, read-out: Tumor/blood ratio",1.2 ± 0.06
same,tissue to tissue ratio at 1 h,"Ex vivo biodistribution; tumor/blood, BxPC3 xenograft, read-out: Tumor/blood ratio",4.86 ± 0.92
same,tissue to tissue ratio at 1 h,"Ex vivo biodistribution; tumor/blood, CFPAC xenograft, read-out: Tumor/blood ratio",4.53 ± 0.9
same,tissue to tissue ratio at 1 h,"Ex vivo biodistribution; tumor/blood, Hs766T xenograft, read-out: Tumor/blood ratio",5.47 ± 0.81
same,tissue to tissue ratio at 1 h,"Ex vivo biodistribution; tumor/blood, Panc1005 xenograft, read-out: Tumor/blood ratio",12.9 ± 2.38
same,tissue to tissue ratio at 1 h,"Ex vivo biodistribution; tumor/blood, Su8686 xenograft, read-out: Tumor/blood ratio",14.2 ± 3.89
same,tissue to tissue ratio at 1 h,"Ex vivo biodistribution; tumor/muscle, AsPC1 xenograft, read-out: Tumor/Muscle ratio",9.95 ± 1.49
same,tissue to tissue ratio at 1 h,"Ex vivo biodistribution; tumor/muscle, BxPC3 xenograft, read-out: Tumor/Muscle ratio",15.2 ± 2.14
same,tissue to tissue ratio at 1 h,"Ex vivo biodistribution; tumor/muscle, CFPAC xenograft, read-out: Tumor/Muscle ratio",12.1 ± 1.45
same,tissue to tissue ratio at 1 h,"Ex vivo biodistribution; tumor/muscle, Hs766T xenograft, read-out: Tumor/Muscle ratio",17.2 ± 2.33
same,tissue to tissue ratio at 1 h,"Ex vivo biodistribution; tumor/muscle, Panc1005 xenograft, read-out: Tumor/Muscle ratio",50.1 ± 10.2
same,tissue to tissue ratio at 1 h,"Ex vivo biodistribution; tumor/muscle, Su8686 xenograft, read-out: Tumor/Muscle ratio",58 ± 11.5
same,tissue to tissue ratio at 1 h,"Ex vivo biodistribution; tumor/pancreas, AsPC1 xenograft, read-out: Tumor/Pancreas ratio",6.23 ± 0.65
same,tissue to tissue ratio at 1 h,"Ex vivo biodistribution; tumor/pancreas, BxPC3 xenograft, read-out: Tumor/Pancreas ratio",11 ± 1.71
same,tissue to tissue ratio at 1 h,"Ex vivo biodistribution; tumor/pancreas, CFPAC xenograft, read-out: Tumor/Pancreas ratio",8.68 ± 1.24
same,tissue to tissue ratio at 1 h,"Ex vivo biodistribution; tumor/pancreas, Hs766T xenograft, read-out: Tumor/Pancreas ratio",13.8 ± 2.3
same,tissue to tissue ratio at 1 h,"Ex vivo biodistribution; tumor/pancreas, Panc1005 xenograft, read-out: Tumor/Pancreas ratio",26.9 ± 5.62
same,tissue to tissue ratio at 1 h,"Ex vivo biodistribution; tumor/pancreas, Su8686 xenograft, read-out: Tumor/Pancreas ratio",39.8 ± 7.21
same,Muscle uptake,CFPAC tumor xenografts,0.21 ± 0.04 %ID/g
same,Small intestine uptake,CFPAC tumor xenografts,0.51 ± 0.10 %ID/g
same,Heart uptake,BxPC3 tumor xenografts,0.29 ± 0.01 %ID/g
same,tissue to tissue ratio at 1 h,"[1]; tumor and muscle, read-out: Tumor-to-muscle ratio",14.8 ± 4.46
same,tissue to tissue ratio at 1 h,"[1]; tumor and pancreas, read-out: Tumor-to-pancreas ratio",10.3 ± 2.24
